Test results: US6479435B1, “Diaryl ethers and processes for their preparation and herbicidal and desiccant compositions containing them” (ISK Americas Incorporated, priority 1997, dated 2002)

Experiments:
Type in all cases: in vivo
[1] = test system: common ragweed (Ambrosia artemisiifolia L., AMBEL); test: Post-emerge greenhouse herbicide test, phytotoxicity rating; conditions: 14 days after application
Procedure, shortened: (§1)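 Compounds in acetone with 0.25% v/v non-ionic surfactant were track-sprayed at 187 l/ha over plants at the 2-3 leaf stage, at 63 to 1000 g ai/ha. Pots were bottom-watered. Injury was scored visually 14 days later on a 0-100 scale, where 0 is no damage and 100 is complete plant death.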

[2] = test system: soybean (Glycine max L., var. Pella 86, SOY); test: Pre-emerge greenhouse test, crop damage rating; conditions: 14 days after application, rating scale 0-100
Procedure, shortened: (§2)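 Seeds sown in sandy loam mix one day before track-sprayer application of compounds in acetone at 125–1000 g ai/ha (187 l/ha), then surface-watered to incorporate and bottom-watered. Visual rating 14 days after application on a 0–100 scale (0 = no damage, 100 = all plants dead).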

[3] = test system: field corn (Zea mays L., var. Dekalb 535, CORN); test: Post-emerge greenhouse test, crop damage rating; conditions: 14 days after application
Procedure, shortened: as §1

[4] = test system: upland rice (Oryza sp., var.Tebonnet, RICE); test: Post-emerge greenhouse test, crop damage rating; conditions: 14 days after application
Procedure, shortened: as §1

[5] = test system: soybean (Glycine max L., var. Pella 86, SOY); test: Post-emerge greenhouse test, crop damage rating; conditions: 14 days after application
Procedure, shortened: as §1

[6] = test system: green foxtail (Setaria viridis, SETVI); test: Post-emerge greenhouse herbicide test, phytotoxicity rating; conditions: 14 days after application
Procedure, shortened: as §1

[7] = test system: velvetleaf (Abutilon theophrasti, ABUTH); test: as above; conditions: 14 days after application
Procedure, shortened: as §1

[8] = test system: redroot pigweed (Amaranthus retroflexus, AMARE); test: as above; conditions: 14 days after application
Procedure, shortened: as §1

[9] = test system: ivyleaf morningglory (Ipomoea hederacea, IPOHE); test: as above; conditions: 14 days after application
Procedure, shortened: as §1

[10] = test system: lambsquarters (Chenopodium album, CHEAL); test: as above; conditions: 14 days after application
Procedure, shortened: as §1

[11] = test system: barnyardgrass (Echinochloa crusgalli, ECHCG); test: as above; conditions: 14 days after application
Procedure, shortened: as §1

[12] = test system: Johnsongrass (Sorghum halepense, SORHA); test: as above; conditions: 14 days after application
Procedure, shortened: as §1

[13] = test system: large crabgrass (Digitaria sanguinalis, DIGSA); test: as above; conditions: 14 days after application
Procedure, shortened: as §1

[14] = test system: sicklepod (Cassia obtusifolia, CASOB); test: as above; conditions: 14 days after application
Procedure, shortened: as §1

[15] = test system: green foxtail (Setaria viridis, SETVI); test: Pre-emerge greenhouse herbicide test, phytotoxicity rating; conditions: 14 days after application, rating scale 0-100
Procedure, shortened: as §2

[16] = test system: velvetleaf (Abutilon theophrasti, ABUTH); test: as above; conditions: 14 days after application, rating scale 0-100
Procedure, shortened: as §2

[17] = test system: redroot pigweed (Amaranthus retroflexus, AMARE); test: as above; conditions: 14 days after application, rating scale 0-100
Procedure, shortened: as §2

[18] = test system: ivyleaf morningglory (Ipomoea hederacea, IPOHE); test: as above; conditions: 14 days after application, rating scale 0-100
Procedure, shortened: as §2

[19] = test system: lambsquarters (Chenopodium album, CHEAL); test: as above; conditions: 14 days after application, rating scale 0-100
Procedure, shortened: as §2

[20] = test system: barnyardgrass (Echinochloa crusgalli, ECHCG); test: as above; conditions: 14 days after application, rating scale 0-100
Procedure, shortened: as §2

[21] = test system: common ragweed (Ambrosia artemisiifolia L., AMBEL); test: as above; conditions: 14 days after application, rating scale 0-100
Procedure, shortened: as §2

[22] = test system: Johnsongrass (Sorghum halepense, SORHA); test: as above; conditions: 14 days after application, rating scale 0-100
Procedure, shortened: as §2

[23] = test system: large crabgrass (Digitaria sanguinalis, DIGSA); test: as above; conditions: 14 days after application, rating scale 0-100
Procedure, shortened: as §2

[24] = test system: sicklepod (Cassia obtusifolia, CASOB); test: as above; conditions: 14 days after application, rating scale 0-100
Procedure, shortened: as §2

[25] = test system: field corn (Zea mays L., var. Dekalb 535, CORN); test: Pre-emerge greenhouse test, crop damage rating; conditions: 14 days after application, rating scale 0-100
Procedure, shortened: as §2

[26] = test system: upland rice (Oryza sp., var.Tebonnet, RICE); test: Pre-emerge greenhouse test, crop damage rating; conditions: 14 days after application, rating scale 0-100
Procedure, shortened: as §2

For `O=c1n(CCCF)nnn1-c1cc(Oc2ccc(C(F)(F)F)cn2)c(Cl)cc1F` [Compound 6-8], the “AMBEL phytotoxicity rating (0-100)” value ([1]; 500 g al/ha) was 20, the “crop damage rating SOY” value ([2]; 500 g ai/ha) was 0 and the “CORN crop damage rating (0-100)” value ([3]; 500 g al/ha) was 5. For the same molecule, the “RICE crop damage rating (0-100)” value ([4]; 500 g al/ha) was 35, the “SOY crop damage rating (0-100)” value ([5]; 500 g al/ha) was 60 and the “SETVI phytotoxicity rating (0-100)” value ([6]; 500 g al/ha) was 90. The “ABUTH phytotoxicity rating (0-100)” value ([7]; 500 g al/ha) was 98, the “AMARE phytotoxicity rating (0-100)” value ([8]; 500 g al/ha) was 80 and the “IPOHE phytotoxicity rating (0-100)” value ([9]; 500 g al/ha) was 60. The “CHEAL phytotoxicity rating (0-100)” value ([10]; 500 g al/ha) was 95, the “ECHCG phytotoxicity rating (0-100)” value ([11]; 500 g al/ha) was 10 and the “SORHA phytotoxicity rating (0-100)” value ([12]; 500 g al/ha) was 10. For the same molecule, the “DIGSA phytotoxicity rating (0-100)” value ([13]; 500 g al/ha) was 20, the “CASOB phytotoxicity rating (0-100)” value ([14]; 500 g al/ha) was 40 and the “phytotoxicity rating SETVI” value ([15]; 500 g ai/ha) was 100. The “phytotoxicity rating ABUTH” value ([16]; 500 g ai/ha) was 80, the “phytotoxicity rating AMARE” value ([17]; 500 g ai/ha) was 85 and the “phytotoxicity rating IPOHE” value ([18]; 500 g ai/ha) was 0. The “phytotoxicity rating CHEAL” value ([19]; 500 g ai/ha) was 100, the “phytotoxicity rating ECHCG” value ([20]; 500 g ai/ha) was 0 and the “phytotoxicity rating AMBEL” value ([21]; 500 g ai/ha) was 0. The “phytotoxicity rating SORHA” value ([22]; 500 g ai/ha) was 80, the “phytotoxicity rating DIGSA” value ([23]; 500 g ai/ha) was 75 and the “phytotoxicity rating CASOB” value ([24]; 500 g ai/ha) was 0. The “crop damage rating CORN” value ([25]; 500 g ai/ha) was 0 and the “crop damage rating RICE” value ([26]; 500 g ai/ha) was 10.
With `CCN1CC(=O)N(c2cc(Oc3ncccn3)c(Cl)cc2F)C1=O` [Compound 8-2] the “AMBEL phytotoxicity rating (0-100)” value ([1]; 63 g al/ha) was 30, the “AMBEL phytotoxicity rating (0-100)” value ([1]; 500 g al/ha) was 95 and the “crop damage rating SOY” value ([2]; 125 g ai/ha) was 0. The “crop damage rating SOY” value ([2]; 500 g ai/ha) was 20, the “CORN crop damage rating (0-100)” value ([3]; 63 g al/ha) was 5 and the “CORN crop damage rating (0-100)” value ([3]; 500 g al/ha) was 15. For the same molecule, the “RICE crop damage rating (0-100)” value ([4]; 63 g al/ha) was 0, the “RICE crop damage rating (0-100)” value ([4]; 500 g al/ha) was 70 and the “SOY crop damage rating (0-100)” value ([5]; 63 g al/ha) was 10. For the same molecule, the “SOY crop damage rating (0-100)” value ([5]; 500 g al/ha) was 90, the “SETVI phytotoxicity rating (0-100)” value ([6]; 63 g al/ha) was 10 and the “SETVI phytotoxicity rating (0-100)” value ([6]; 500 g al/ha) was 30. The “ABUTH phytotoxicity rating (0-100)” value ([7]; 63 g al/ha) was 60, the “ABUTH phytotoxicity rating (0-100)” value ([7]; 500 g al/ha) was 100 and the “AMARE phytotoxicity rating (0-100)” value ([8]; 63 g al/ha) was 60. The “AMARE phytotoxicity rating (0-100)” value ([8]; 500 g al/ha) was 100, the “IPOHE phytotoxicity rating (0-100)” value ([9]; 63 g al/ha) was 70 and the “IPOHE phytotoxicity rating (0-100)” value ([9]; 500 g al/ha) was 100. The “CHEAL phytotoxicity rating (0-100)” value ([10]; 63 g al/ha) was 80, the “CHEAL phytotoxicity rating (0-100)” value ([10]; 500 g al/ha) was 100 and the “ECHCG phytotoxicity rating (0-100)” value ([11]; 63 g al/ha) was 10. For the same molecule, the “ECHCG phytotoxicity rating (0-100)” value ([11]; 500 g al/ha) was 50, the “SORHA phytotoxicity rating (0-100)” value ([12]; 63 g al/ha) was 0 and the “SORHA phytotoxicity rating (0-100)” value ([12]; 500 g al/ha) was 20. For the same molecule, the “DIGSA phytotoxicity rating (0-100)” value ([13]; 63 g al/ha) was 0, the “DIGSA phytotoxicity rating (0-100)” value ([13]; 500 g al/ha) was 20 and the “CASOB phytotoxicity rating (0-100)” value ([14]; 63 g al/ha) was 20. For the same molecule, the “CASOB phytotoxicity rating (0-100)” value ([14]; 500 g al/ha) was 50, the “phytotoxicity rating SETVI” value ([15]; 125 g ai/ha) was 95 and the “phytotoxicity rating SETVI” value ([15]; 500 g ai/ha) was 100. For the same molecule, the “phytotoxicity rating ABUTH” value ([16]; 125 g ai/ha) was 100, the “phytotoxicity rating ABUTH” value ([16]; 500 g ai/ha) was 100 and the “phytotoxicity rating AMARE” value ([17]; 125 g ai/ha) was 100. The “phytotoxicity rating AMARE” value ([17]; 500 g ai/ha) was 100, the “phytotoxicity rating IPOHE” value ([18]; 125 g ai/ha) was 100 and the “phytotoxicity rating IPOHE” value ([18]; 500 g ai/ha) was 100. The “phytotoxicity rating CHEAL” value ([19]; 125 g ai/ha) was 100, the “phytotoxicity rating CHEAL” value ([19]; 500 g ai/ha) was 100 and the “phytotoxicity rating ECHCG” value ([20]; 125 g ai/ha) was 10. The “phytotoxicity rating ECHCG” value ([20]; 500 g ai/ha) was 100, the “phytotoxicity rating AMBEL” value ([21]; 125 g ai/ha) was 95 and the “phytotoxicity rating AMBEL” value ([21]; 500 g ai/ha) was 100. For the same molecule, the “phytotoxicity rating SORHA” value ([22]; 125 g ai/ha) was 20, the “phytotoxicity rating SORHA” value ([22]; 500 g ai/ha) was 100 and the “phytotoxicity rating DIGSA” value ([23]; 125 g ai/ha) was 90. The “phytotoxicity rating DIGSA” value ([23]; 500 g ai/ha) was 100, the “phytotoxicity rating CASOB” value ([24]; 125 g ai/ha) was 0 and the “phytotoxicity rating CASOB” value ([24]; 500 g ai/ha) was 80. For the same molecule, the “crop damage rating CORN” value ([25]; 125 g ai/ha) was 0, the “crop damage rating CORN” value ([25]; 500 g ai/ha) was 50 and the “crop damage rating RICE” value ([26]; 125 g ai/ha) was 40. The “crop damage rating RICE” value ([26]; 500 g ai/ha) was 90.
